Data from patent US4339454A, “Alkoxymethyl and benzyloxymethyl phenobarbital therapeutic compositions” (priority 1978, dated 1982).

Legend:
Metrazol = experiment: Anticonvulsant effectiveness against convulsive dose of Metrazol, mice; format: in vivo, mice (Charles River strain); conditions: oral
Experimental: (§1) All tests, with the exceptions noted, were conducted on adult albino male mice (Charles River strain); the dosage consisted of the active agent suspended in 10% aqueous acacia and was administered orally unless otherwise indicated.
Anticonvulsant effectiveness was determined against a convulsive dose of Metrazol (106.25 mg/kg) injected subcutaneously; the criterior for effectiveness was failure to show clonic convulsive seizures. Anticonvulsant activity was determined against a lethal dose of strychnine sulfate (1.5 mg/kg) injected subcutaneously; the criterion was failure to die, even though seizures appeared.

maximal electroshock = experiment: Anticonvulsant effectiveness against maximal electroshock, mice; format: in vivo, mice (Charles River strain); conditions: for Time of peak activity: mice, oral, maximal electroshock
Experimental: as §1
Anticonvulsant effectiveness of each agent against maximal electroshock was determined at the time of peak effect. The time of peak anticonvulsant activity was determined by administering dosages of various sizes to a group of animals and administering a maximal electroshock to the animals at intervals thereafter by supplying 60 ma. current through a corneal electrode for 0.2 second. […] The time of peak effect thus determined was used for all subsequent tests of anticonvulsant activity on the same active agent.

[1] = literature / prior knowledge; cited from earlier work
[2] = prior knowledge; cited from earlier work
central nervous system = experiment: Hypnotic activity: loss of the righting reflex (onset of sleep); format: in vivo, mice (Charles River strain); conditions: any dosage less than a lethal dose for the compounds of the invention
Experimental: as §1

Structure (SMILES): CCCCCCCCCCCCOCN1C(=O)N(COCCCCCCCCCCCC)C(=O)C(CC)(CC)C1=O [Example 10, 1,3-di-n-dodecyloxymethyl-5,5-diethyl barbituric acid]
- Time of peak activity (in words) (Metrazol): about one hour

Structure (SMILES): COCN1C(=O)NC(c2ccccc2)(c2ccccc2)C1=O [Example 2, 3-methoxymethyl-5,5-diphenylhydantoin]
- Onset of anticonvulsant activity (maximal electroshock) after ingestion (maximal electroshock; after ingestion): less than 0.5 hour

Structure (SMILES): O=C1NC(=O)C(c2ccccc2)(c2ccccc2)N1 [diphenylhydantoin]
- Hypnotic activity, known or reported [1]: not hypnotic
- Undesirable side effects [2]: hypertrophic gingivitis, megaloblastic anemia, toxic psychoses, and hirsutism

Structure (SMILES): CCC1(c2ccccc2)C(=O)N(COC)C(=O)N(COC)C1=O [Example 1, 1,3-dimethoxymethyl-5-ethyl-5-phenyl barbituric acid]
- Duration of anticonvulsant effect against maximal electroshock (in words) (maximal electroshock; 0.1 millimole/kg): protection continued at about the same level for more than eight hours
- Onset of protection against maximal electroshock (in words) (maximal electroshock; 0.1 millimole/kg): only after two hours
- Time of peak activity (maximal electroshock): 2 h
- Change in ED50 to protect against maximal electroshock on repeated daily dosage (maximal electroshock; repeated daily dosage of same animals for four days): no significant change
- Hypnotic activity, known or reported [1]: without effect

Structure (SMILES): CCCCCCCCCCCCOCN1C(=O)N(COCCCCCCCCCCCC)C(=O)C(CC)(c2ccccc2)C1=O [Example 8, 1,3-dilauryloxymethyl-5-ethyl-5-phenyl barbituric acid]
- Time of peak activity (maximal electroshock): 2 h

Structure (SMILES): CCC1(c2ccccc2)C(=O)NC(=O)NC1=O [Phenobarbital, phenobarbital]
- Hypnotic activity (loss of the righting reflex) (central nervous system): did exhibit hypnotic activity
- Hypnotic activity, known or reported [1]: exhibits hypnotic activity

Structure (SMILES): CCC1(c2ccccc2)C(=O)NC(=O)NC1=O [phenobarbital sodium, reference compound]
- Duration of anticonvulsant effect against maximal electroshock (in words) (maximal electroshock; 0.1 millimole/kg): protection began to decrease after four hours and was nearly gone by eight hours
- Onset of protection against maximal electroshock (maximal electroshock; 0.1 millimole/kg): less than 0.5 hour

Structure (SMILES): CCC1(CC)C(=O)N(COC)C(=O)N(COC)C1=O [Example 9, 1,3-dimethoxymethyl-5,5-diethylbarbituric acid]
- Time of peak activity (Metrazol): 1 h
